Test results from ChEMBL document CHEMBL2331255, “Carbonic anhydrase inhibitors: benzenesulfonamides incorporating cyanoacrylamide moieties are low nanomolar/subnanomolar inhibitors of the tumor-associated isoforms IX and XII” (Bioorg Med Chem, 2013).
pKi: −log10 of the molar value.

Experiments:
Carbonic anhydrase 2 = Carbonic anhydrase 2 (Homo sapiens, UniProt P00918); assay: Inhibition of human carbonic anhydrase 2 preincubated for 15 mins by CO2 hydration stopped-flow assay
Carbonic anhydrase 9 = Carbonic anhydrase 9 (Homo sapiens, UniProt Q16790); assay: Inhibition of human carbonic anhydrase 9 preincubated for 15 mins by CO2 hydration stopped-flow assay
Carbonic anhydrase 12 = Carbonic anhydrase 12 (Homo sapiens, UniProt O43570); assay: Inhibition of human carbonic anhydrase 12 preincubated for 15 mins by CO2 hydration stopped-flow assay
Carbonic anhydrase 1 = Carbonic anhydrase 1 (Homo sapiens, UniProt P00915); assay: Inhibition of human carbonic anhydrase 1 preincubated for 15 mins by CO2 hydration stopped-flow assay
Chain of Carbonic anhydrase 1 (P00915 whole entry): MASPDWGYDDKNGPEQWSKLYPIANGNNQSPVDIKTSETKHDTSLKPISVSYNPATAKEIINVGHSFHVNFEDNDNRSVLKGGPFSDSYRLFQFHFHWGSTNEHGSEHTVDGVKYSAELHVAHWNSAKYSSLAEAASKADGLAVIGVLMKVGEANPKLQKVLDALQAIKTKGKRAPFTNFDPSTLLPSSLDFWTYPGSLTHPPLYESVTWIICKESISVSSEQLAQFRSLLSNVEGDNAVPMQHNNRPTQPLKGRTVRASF

Chain of Carbonic anhydrase 12 (O43570 whole entry): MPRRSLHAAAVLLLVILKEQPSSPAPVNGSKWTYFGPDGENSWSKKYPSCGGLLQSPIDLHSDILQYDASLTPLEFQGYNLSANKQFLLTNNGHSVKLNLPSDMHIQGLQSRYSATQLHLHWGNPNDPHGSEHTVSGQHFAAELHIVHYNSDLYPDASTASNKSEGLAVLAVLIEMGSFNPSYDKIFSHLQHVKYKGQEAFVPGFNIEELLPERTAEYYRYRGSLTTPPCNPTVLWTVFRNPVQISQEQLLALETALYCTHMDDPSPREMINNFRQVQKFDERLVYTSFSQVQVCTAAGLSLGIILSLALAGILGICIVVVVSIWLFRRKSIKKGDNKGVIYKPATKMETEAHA

SMILES	pKi (Carbonic anhydrase 9)	further results
COc1ccccc1/C=C(\C#N)C(=O)Nc1ccc(S(N)(=O)=O)cc1	7.49	pKi (Carbonic anhydrase 2): 8.16; pKi (Carbonic anhydrase 12): 9.22; pKi (Carbonic anhydrase 1): 7.15
COc1cc(/C=C(\C#N)C(=O)Nc2ccc(S(N)(=O)=O)cc2)cc(OC)c1OC	7.69	–
COc1ccc(/C=C(\C#N)C(=O)Nc2ccc(S(N)(=O)=O)cc2)cc1OC	7.67	–
N#C/C(=C\C=C\c1ccccc1)C(=O)Nc1ccc(S(N)(=O)=O)cc1	8.31	–
N=c1oc2ccccc2cc1C(=O)Nc1ccc(S(N)(=O)=O)cc1	7.89	–
N#C/C(=N\Nc1ccccc1)C(=O)Nc1ccc(S(N)(=O)=O)cc1	8.02	–
N#C/C(C(=O)Nc1ccc(S(N)(=O)=O)cc1)=C(\S)Nc1ccccc1	8.24	–
N#C/C(=C\c1ccccc1Cl)C(=O)Nc1ccc(S(N)(=O)=O)cc1	8.05	–
N#C/C(=C\c1ccc(Cl)cc1Cl)C(=O)Nc1ccc(S(N)(=O)=O)cc1	7.45	–

Continued by rising pKi (Carbonic anhydrase 9), values first:

pKi (Carbonic anhydrase 9)	SMILES	further results
8.27	COc1cc(/C=C(\C#N)C(=O)Nc2ccc(S(N)(=O)=O)cc2)ccc1O	–
8.28	N#CCC(=O)Nc1ccc(S(N)(=O)=O)cc1	–
8.37	N#C/C(=C\c1ccco1)C(=O)Nc1ccc(S(N)(=O)=O)cc1	pKi (Carbonic anhydrase 2): 8.26; pKi (Carbonic anhydrase 12): 8.20; pKi (Carbonic anhydrase 1): 8.21
8.43	N#C/C(=C\c1cccs1)C(=O)Nc1ccc(S(N)(=O)=O)cc1	–
8.47	CN(C)c1ccc(/C=C(\C#N)C(=O)Nc2ccc(S(N)(=O)=O)cc2)cc1	–
9.02	COc1cc(OC)c(OC)cc1/C=C(\C#N)C(=O)Nc1ccc(S(N)(=O)=O)cc1	–
9.03	N#C/C(=C\c1ccc([N+](=O)[O-])cc1)C(=O)Nc1ccc(S(N)(=O)=O)cc1	–
9.07	COc1ccc(/C=C(\C#N)C(=O)Nc2ccc(S(N)(=O)=O)cc2)cc1	–
9.17	N#C/C(=C\c1ccc(O)cc1)C(=O)Nc1ccc(S(N)(=O)=O)cc1	–
9.19	N#C/C(=C\c1ccc(O)c(O)c1)C(=O)Nc1ccc(S(N)(=O)=O)cc1	–
9.48	CC(=O)C1=NN(c2ccccc2)/C(=C(\C#N)C(=O)Nc2ccc(S(N)(=O)=O)cc2)S1	–
